What was measured:
[1] = test system: human T-cell line CCRF/CEM; assay: In vitro cytotoxicity in cell culture, CCRF/CEM; format: cell-based; settings: read-out: ED50 (the source's name)
Procedure: (§1) The cytotoxicity of the test compounds was determined in cell culture using the human T-cell line CCRF/CEM (ATCC CCL 119) and also the human breast cancer cell line MCF-7 [H.D. Soule, et al., J.. Nat. Cancer Inst., 51, 1409 (1973)].

DHFR [2] = target: T1, DHFR (Rattus norvegicus, UniProt Q920D2); assay: In vitro DHFR binding affinities (DHFR inhibition), rat liver enzyme; format: biochemical
T1 construct: DHFR isolated from bacterial and mammalian sources; from tissue; host or cells: rat liver
T1 sequence (Q920D2 1-187): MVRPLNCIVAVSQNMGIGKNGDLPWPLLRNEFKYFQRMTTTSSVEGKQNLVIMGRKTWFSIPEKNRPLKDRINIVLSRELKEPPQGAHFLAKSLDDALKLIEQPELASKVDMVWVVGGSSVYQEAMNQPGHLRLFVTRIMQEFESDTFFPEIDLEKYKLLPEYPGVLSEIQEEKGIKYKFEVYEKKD
Procedure: (§2) The inhibition by the title compound of DHFR isolated from bacterial and mammalian sources was determined using known procedures [B. Roth et al., J. Med. Chem., 24, 933 (1981)].

[3] = test system: human breast cancer cell line MCF-7; assay: In vitro cytotoxicity in cell culture, MCF-7; format: cell-based; settings: MCF7, Cell line MCF-7, cytotoxicity, read-out: ED50 (the source's name)
Procedure: as §1

DHFR [4] = target: T2, DHFR (Escherichia coli, UniProt P0ABQ4); assay: In vitro DHFR binding affinities (DHFR inhibition), E. coli enzyme; format: biochemical
T2 construct: DHFR isolated from bacterial and mammalian sources; endogenous in cells
Procedure: as §2

In the case of `COc1ccc(O)c(Cc2cnc3nc(N)nc(N)c3c2C)c1` [Compound A, 2,4-diamino-5-methyl-6-(2-hydroxy-5-methoxybenzyl)pyrido[2,3-d] pyrimidine], the EC50 [1] is reported as 400 nM, the IC50 (DHFR [2]) is reported as 18 nM and the EC50 [3] is reported as 790 nM. The IC50 (DHFR [4]) was 8 nM.
For `COc1ccc(O)cc1Cc1cnc2nc(N)nc(N)c2c1C` [Compound B, 2,4-diamino-5-methyl-6-(5-hydroxy-2-methoxybenzyl)pyrido[2,3-d] pyrimidine], the EC50 [1] was 80 nM, the IC50 (DHFR [2]) was 12 nM and the EC50 [3] was 750 nM. For the same compound, the IC50 (DHFR [4]) was 16 nM.
